For assay [1], the target named is T1, SARS-Cov-2 3CLpro (Severe acute respiratory syndrome coronavirus 2, UniProt P0DTD1).
T1 construct: 3CLpro and HRV3C was added using a Multidrop Combi
Put plainly: biochemical. Conditions: 3CLpro, 30 mins preincubation, SAMDI-MS; read-out: SARS-Cov-2 IC50 (class).

The target of assay [2] is T2, HRV3C (Human rhinovirus 14, UniProt P03303).
T2 construct: 3CLpro and HRV3C was added using a Multidrop Combi
Put plainly: biochemical. More on the design: species or system HRV. Conditions: HRV3C, 30 mins preincubation, SAMDI-MS.

In assay [3] the test system is human beta-coronavirus OC43. Put plainly: OC43 coronavirus antiviral assay in HeLa cells (cytopathic effect, cell-titer-glo). The conditions noted are these: Betacoronavirus 1, OC43, HeLa, 144 h, 6 days at 33° C. It counts as cell-based.
Assay [4] concerns SARS-CoV-2-GHB-03021/2020. The assay is classed as cell-based. Conditions: read-out: VeroE6 + CP (EC50).
Assay [5] has as its system B.1.1.7 lineage SARS-CoV-2. Put plainly: microbe, parasite or virus in culture. It counts as cell-based. Conditions: Severe acute respiratory syndrome coronavirus 2, 96 h, read-out: A549-dual_ACE2_TMPRSS2 (EC50).
The target of assay [6] is T3, human cathepsin L (Homo sapiens, UniProt P07711).
T3 construct: purchased R&D Systems
Put plainly: Cathepsin L assay (Z-FR-AMC fluorescence). The assay is classed as biochemical. The conditions noted are these: 10 pM human cathepsin L, 30 mins preincubation, Z-FR-AMC 2 μM. A digest of the protocol: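 Human cathepsin L (10 pM) was preincubated 30 min with compound, then reactions were started with Z-FR-AMC substrate (2 μM final). AMC fluorescence (355/460 nm) was read every 2 min over 30 min. IC50 came from a four-parameter curve fit.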

[7] abbreviates: […], numeric bounds given instead of class symbols.

Data on twelve molecules can be found in patent publication US12252481B2, “Anti-viral compounds” (Aligos Therapeutics, Inc., priority 2021, dated 2025).

Where two headings read alike, the source gives them in different places.

The IC50 is the concentration that gives 50% inhibition. For orientation: EC50 means the concentration giving half of the maximal effect.

T2 sequence (P03303 1538-1719): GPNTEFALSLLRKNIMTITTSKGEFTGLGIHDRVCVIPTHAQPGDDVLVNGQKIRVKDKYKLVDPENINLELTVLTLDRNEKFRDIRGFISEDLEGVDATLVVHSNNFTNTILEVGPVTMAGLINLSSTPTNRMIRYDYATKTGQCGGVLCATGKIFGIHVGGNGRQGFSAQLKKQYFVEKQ
T3 sequence (P07711 114-333): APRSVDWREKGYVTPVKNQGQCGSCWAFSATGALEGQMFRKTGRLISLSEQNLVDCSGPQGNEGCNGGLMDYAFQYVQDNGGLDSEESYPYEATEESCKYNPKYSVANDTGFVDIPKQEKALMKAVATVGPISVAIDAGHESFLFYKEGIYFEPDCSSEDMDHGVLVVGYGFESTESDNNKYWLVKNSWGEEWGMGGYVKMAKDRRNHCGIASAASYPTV

With `CC(C)(C)[C@H](NC(=O)C(F)(F)F)C(=O)N1C[C@H]2[C@@H]([C@H]1C(=O)N[C@H](C#N)C[C@@H]1CC3(CC3)NC1=O)[C@H]1C=C[C@@H]2C1` [Example 14, (1S,3aR,4S,7R,7aS)-N-((S)-1-cyano-2-((R)-5-oxo-4-azaspiro[2.4]heptan-6-yl)ethyl)-2-((S)-3,3-dimethyl-2-(2,2,2-trifluoroacetamido)butanoyl)-2,3,3a,4,7,7a-hexahydro-1H-4,7-methanoisoindole-1-carboxamide], the IC50 in assay [1] was under 20 nM; in assay [2] (read-out: HRV IC50 (bound)), over 10000 nM; in assay [6], at least 10000 nM. The EC50 in assay [3] (read-out: EC50 (class)), in assay [4] and in assay [5] was under 100 nM in each case.
Regarding `N#C[C@H](C[C@@H]1CCNC1=O)NC(=O)[C@@H]1[C@@H]2[C@H](CN1C(=O)c1cc3c(Cl)cc(Cl)cc3[nH]1)[C@@H]1C=C[C@H]2C1` [Compound 44, (1S,3aR,4S,7R,7aS)-N-((S)-1-cyano-2-((S)-2-oxopyrrolidin-3-yl)ethyl)-2-(4,6-dichloro-1H-indole-2-carbonyl)-2,3,3a,4,7,7a-hexahydro-1H-4,7-methanoisoindole-1-carboxamide], the IC50 in assay [1] is 20 to 200 nM; in assay [2] (read-out: HRV IC50 (bound)) it was over 10000 nM; in assay [6], at least 10000 nM. Further, the EC50 in assay [3] (read-out: EC50 (class)) lay within 100 to 1000 nM; in assay [4], 1000 to 10000 nM; in assay [5], 1000 to 10000 nM.
`N#C[C@H](C[C@@H]1CCNC1=O)NC(=O)[C@@H]1[C@@H]2[C@H](CN1C(=O)[C@@H]1C[C@]13CCOc1ccccc13)[C@@H]1C=C[C@H]2C1` (relative stereo) [Compound 55, (1S,3aR,4S,7R,7aS)-N-((S)-1-cyano-2-((S)-2-oxopyrrolidin-3-yl)ethyl)-2-((2′R*,4S*)-spiro[chromane-4,1′-cyclopropane]-2′-carbonyl)-2,3,3a,4,7,7a-hexahydro-1H-4,7-methanoisoindole-1-carboxamide]: the IC50 in assay [1] is 20 to 200 nM; in assay [2] (read-out: HRV IC50 (bound)), over 10000 nM; in assay [6], at least 10000 nM. Besides, the EC50 in assay [3] (read-out: EC50 (class)) is 1000 to 10000 nM; in assay [4], 100 to 1000 nM; in assay [5], 100 to 1000 nM.
As to `CC(C)(C)[C@@H](C(=O)N1C[C@H]2[C@@H]([C@H]1C(=O)N[C@H](C#N)C[C@@H]1CCNC1=O)[C@H]1C=C[C@@H]2C1)N1CCCC1=O` [Compound 70], the values for the IC50 in assay [1], in assay [2] (read-out: HRV IC50 (bound)) and in assay [6] were 2000 to 20000 nM, over 10000 nM and at least 10000 nM, respectively. The figures for the EC50 in assay [3] (read-out: EC50 (bound)), in assay [4] and in assay [5] (setting [7]) were over 10000 nM, 10000 to 50000 nM and over 10000 nM, respectively.
Regarding `CC1(C(NC(=O)C(F)(F)F)C(=O)N2C[C@H]3[C@@H]([C@H]2C(=O)N[C@H](C#N)C[C@@H]2CCNC2=O)[C@H]2C=C[C@@H]3C2)CC1` (stereo partly drawn) [Example 24, (1R,2S,3S,6R,7S)—N-[(1S)-1-cyano-2-[(3S)-2-oxopyrrolidin-3-yl]ethyl]-4-[2-(1-methylcyclopropyl)-2-(2,2,2-trifluoroacetamido)acetyl]-4-azatricyclo[5.2.1.0^{2,6}]dec-8-ene-3-carboxamide], the IC50 is under 20 nM in assay [1], over 10000 nM in assay [2] (read-out: HRV IC50 (bound)) and at least 10000 nM in assay [6]. Moreover, the EC50 in assay [3] (read-out: EC50 (class)) was under 100 nM; in assay [4] it was 100 to 1000 nM; in assay [5] it was 100 to 1000 nM.
`CC(C)(C)[C@H](OCC1CC1)C(=O)N1C[C@H]2[C@@H]([C@H]1C(=O)N[C@H](C#N)C[C@@H]1CCNC1=O)[C@H]1C=C[C@@H]2C1` [Compound 56]: the IC50 in assay [1] was 200 to 2000 nM; in assay [2] (read-out: HRV IC50 (bound)), over 10000 nM; in assay [6], at least 10000 nM. Also, the EC50 was over 10000 nM in assay [3] (read-out: EC50 (bound)), 1000 to 10000 nM in assay [4] and 1000 to 10000 nM in assay [5].
`CC(C)(C)[C@H](OC1CC1)C(=O)N1C[C@H]2[C@@H]([C@H]1C(=O)N[C@H](C#N)C[C@@H]1CCNC1=O)[C@H]1C=C[C@@H]2C1` [Compound 54]: the IC50 is 200 to 2000 nM in assay [1], over 10000 nM in assay [2] (read-out: HRV IC50 (bound)) and at least 10000 nM in assay [6]. Also, the EC50 in assay [3] (read-out: EC50 (bound)) is over 10000 nM; in assay [4], 1000 to 10000 nM; in assay [5] (setting [7]), over 10000 nM.
Turning to `N#C[C@H](C[C@@H]1CCNC1=O)NC(=O)[C@@H]1[C@@H]2[C@H](CN1C(=O)[C@@H](NC(=O)C(F)(F)F)C13CC(C1)C3)[C@@H]1C=C[C@H]2C1` [Example 27, (1R,2S,3S,6R,7S)-4-[(2S)-2-{bicyclo[1.1.1]pentan-1-yl}-2-(2,2,2-trifluoroacetamido)acetyl]-N-[(1S)-1-cyano-2-[(3S)-2-oxopyrrolidin-3-yl]ethyl]-4-azatricyclo[5.2.1.0^{2,6}]dec-8-ene-3-carboxamide], the figures for the IC50 in assay [1], in assay [2] (read-out: HRV IC50 (bound)) and in assay [6] were under 20 nM, over 10000 nM and at least 10000 nM, respectively. For the same molecule, the EC50 is under 100 nM in assay [3] (read-out: EC50 (class)), under 100 nM in assay [4] and 100 to 1000 nM in assay [5].
On to `CC(C)(C)[C@H](NC(=O)C(F)(F)F)C(=O)N1C[C@@H]2[C@@H]3CC[C@@H](C3)[C@@H]2[C@H]1C(=O)N[C@H](C#N)CC1Cn2nccc2NC1=O` (relative stereo) [Compound 17a, (1S,3aR,4R,7S,7aS)-N-((S)-1-cyano-2-((R*)-5-oxo-4,5,6,7-tetrahydropyrazolo[1,5-a]pyrimidin-6-yl)ethyl)-2-((S)-3,3-dimethyl-2-(2,2,2-trifluoroacetamido)butanoyl)octahydro-1H-4,7-methanoisoindole-1-carboxamide], for which the concentration for half-maximal inhibition (IC50) in assay [1] was under 20 nM; in assay [2] (read-out: HRV IC50 (bound)), over 10000 nM; in assay [6], at least 10000 nM. Besides, the EC50 is under 100 nM in assay [3] (read-out: EC50 (class)), under 100 nM in assay [4] and 100 to 1000 nM in assay [5].
On to `O=C(NC1CC1)C(=O)C(C[C@@H]1CCNC1=O)NC(=O)[C@@H]1[C@@H]2[C@H](CN1C(=O)[C@@H]1C[C@]13CCCc1ccccc13)[C@@H]1C=C[C@H]2C1` (stereo partly drawn) [Example 11, (1S,3aR,4S,7R,7aS)—N-(4-(cyclopropylamino)-3,4-dioxo-1-((S)-2-oxopyrrolidin-3-yl)butan-2-yl)-2-((1R,2R)-3′,4′-dihydro-2′H-spiro[cyclopropane-1,1′-naphthalene]-2-carbonyl)-2,3,3a,4,7,7a-hexahydro-1H-4,7-methanoisoindole-1-carboxamide], for which the IC50 in assay [1] is under 20 nM; in assay [2] (read-out: HRV IC50 (class)), 200 to 2000 nM; in assay [6], at least 10000 nM. In addition, the EC50 in assay [3] (read-out: EC50 (class)), in assay [4] and in assay [5] was 100 to 1000 nM in each case.
Turning to `CC(C)(C)[C@H](NC(=O)C(F)(F)F)C(=O)N1C[C@@H]2[C@@H]3CC[C@@H](C3)[C@@H]2[C@H]1C(=O)N[C@H](C#N)C[C@@H]1CCNC1=O` [Example 12, (1S,3aR,4R,7S,7aS)-N-((S)-1-cyano-2-((S)-2-oxopyrrolidin-3-yl)ethyl)-2-((S)-3,3-dimethyl-2-(2,2,2-trifluoroacetamido)butanoyl)octahydro-1H-4,7-methanoisoindole-1-carboxamide], the half-maximal inhibitory concentration (IC50) in assay [1] is under 20 nM; in assay [2] (read-out: HRV IC50 (bound)), over 10000 nM; in assay [6], at least 10000 nM. The concentration for a half-maximal effect (EC50) in assay [3] (read-out: EC50 (class)), in assay [4] and in assay [5] was under 100 nM throughout.
Consider `CC(C)(C)[C@H](NC(=O)C(F)(F)F)C(=O)N1C[C@@H]2[C@@H]3CC[C@@H](C3)[C@@H]2[C@H]1C(=O)N[C@H](C#N)C[C@H]1Cn2nccc2NC1=O` (relative stereo) [Compound 17b], for which the IC50 was under 20 nM in assay [1], over 10000 nM in assay [2] (read-out: HRV IC50 (bound)) and at least 10000 nM in assay [6]. Also, the EC50 in assay [3] (read-out: EC50 (class)), in assay [4] and in assay [5] was 100 to 1000 nM each time.
